Test results: patent publication US5196292A, “Nucleated high contrast photographic elements containing ballasted thioether isothioureas to inhibit pepper fog and restrain image spread” (priority 1991, dated 1993)

What was measured:
[1] = image spread: halftone dot growth rate during development; details: for Dot Growth Rate: Table II, 0.5 mmol/Ag mol, control 0.63 microns/sec; for reduction of dot growth rate (in words): from Table II, versus control, silver chlorobromide emulsion
Experimental: (§1) Each coating used in obtaining the data provided in these examples was prepared on a polyester support, using a monodispersed 0.23 micrometer cubic, rhodium-doped, sulfur plus gold sensitized AgClBr(70/30) emulsion at 3.24 g/m^2 Ag, 2.35 g gel/m^2 and 1.00 g latex/m^2, where the latex is a copolymer of methyl acrylate, 2-acrylamido-2-methylpropane sulfonic acid and 2-acetoacetoxyethylmethacrylate. Sulfur and gold sensitization was provided by addition of 1.5 mg/Ag mole of 1,3-dicarboxymethyl-1,3-dimethyl-2-thiourea and 1.1 mg/Ag mole of potassium tetrachloroaurate. The silver halide emulsion also contained, in amounts of 50, 400, and 200 mg/Ag mole, respectively, the antifoggants 1-(3-acetamidophenyl)-5-mercaptotetrazole, 5-carboxy-4-hydroxy-6-methyl-2-methyl-mercapto1,3,3a,7-tetra-azaindene and 5-bromo-4-hydroxy-6-methyl-1,3,3a,7-tetraazaindene. The emulsion was spectr sensitized at 208 mg/Ag mol with a sensitizing dye of the formula: [drawing 17] and the emulsion layer was overcoated with gelatin containing polymethylmethacrylate beads. The nucleating agent was added as a methanol solution to the emulsion melts at a level of 0.2 millimoles (mM) per mole of silver. The compound employed as the nucleating agent is represented by the formula: [drawing 18]
(§2) An "incorporated booster" was added as a methanol solution in an amount of 2 g/Ag mol. The compound employed as the "incorporated booster" is represented by the formula: [drawing 19] where Pr represents n-propyl
(§3) Ballasted thioether isothioureas I to VII were incorporated n the emulsion at 0.5 mmol/Ag mol as methanol solutions. Coatings were exposed through a 0.1 Log E step tablet for five seconds to a 3000° K. tungsten light source and processed for 30 seconds at 30° C. in the developer solution. Processing was carried out in a KODAK KODAMATIC Model 42S processor.
Each of the coatings was also analyzed for the effect upon image spread of the incorporation of the isothiourea compound.
Image spread measurements were performed by following the growth in diameter of halftone dots with development time. The films were contact exposed to a 52 line/cm 90% tint to produce a 10% exposed dot pattern. The films were then developed in a device that measures the infrared (IR) density during development. The integrated IR halftone density of the developing tint pattern was converted to the equivalent dot diameter using the relation between integrated density and percent dot area. The resulting plots of increasing dot diameter with development time were linear (constant dot growth rate) during the first 60 to 90 seconds of development.

[2] = sensitometry: change in speed and practical density point versus control; details: Table I; for Delta Log Speed: 0.5 mmol/Ag mol isothiourea, change versus control without isothiourea; for Delta PDP (practical density point): 0.5 mmol/Ag mol, density at 0.4 log E past speed point, Test PDP - Control PDP
Experimental: as §1, §2, §3
(§4) The concentrate was diluted at a ratio of one part of concentrate to three parts of water to produce a working strength developing solution with a pH of 10.5.
(§5) An electronic image analyzer was used to scan processed unexposed samples and count the number of pepper fog spots (>10 micrometer diameter) contained in an area of 600 square millimeters. Standard sensitometry exposures were processed and analyzed to monitor speed and shoulder density effects.
(§6) Sensitometry parameters are expressed in Table I in terms of the change produced by incorporation of the ballasted thioether isothiourea versus the control which contained no isothiourea compound and was processed under identical conditions. Values are reported for speed, practical density point (PDP, a measure of shoulder development) and pepper fog (PF). Therefore, the changes in speed, practical density point and pepper fog produced by the ballasted thioether isothiourea are directly recorded in the table. By definition, the delta log speed, delta PDP and delta log PF for the control are zero.
(§7) In each of examples 1 to 7, the ballasted thioether isothiourea was employed in the form of the hydrochloride salt. Comparative test A utilized the hydrobromide salt of isothiourea compound "A" of the formula: [drawing 20] Comparative test B utilized the hydrobromide salt of isothiourea compound "B" of the formula: [drawing 21] Both compounds A and B were utilized at a concentration of 0.5 mmol/Ag mol.

[3] = pepper fog spot count by electronic image analyzer, change versus control; details: for Delta Log PF (pepper fog): Table I, 0.5 mmol/Ag mol, spots >10 micrometer diameter in 600 square millimeters, -0.3 = two times reduction; for reduction in pepper fog (in words): from Table I, versus control
Experimental: as §1, §2, §3, §4, §5, §6, §7

| SMILES | Dot Growth Rate [1] | reduction of dot growth rate (in words) [1] | Delta Log Speed [2] | Delta PDP (practical density point) [2] | Delta Log PF (pepper fog) [3] | reduction in pepper fog (in words) [3] |
| --- | --- | --- | --- | --- | --- | --- |
| CCCCCCCCCCCCSC(=N)N [B, reference compound] | 0.62 microns/sec | ineffective in reducing dot growth rate | -0.02 | -0.34 | -0.07 | also reduced pepper fog, but to a much lesser extent |
| CCCCCCCCSC(=N)N [Compound A, reference compound] | 0.62 microns/sec | ineffective in reducing dot growth rate | -0.02 | -0.22 | -0.12 | also reduced pepper fog, but to a much lesser extent |
| CCCCCCSCCCSC(=N)N [III] | 0.54 microns/sec | – | -0.02 | -0.36 | -0.58 | – |
| CCCCCCCCCCSCCSC(=N)N [II] | 0.58 microns/sec | – | -0.03 | -0.14 | -0.46 | – |
| CCCCCCCCCCSCCCSC(=N)N [IV] | 0.58 microns/sec | – | -0.01 | -0.39 | -0.43 | – |
| CCCCCCSCCSC(=N)N [I] | 0.55 microns/sec | – | -0.01 | -0.06 | -0.14 | – |
| N=C(N)SCCSCc1ccccc1 [VII] | 0.54 microns/sec | – | -0.03 | -0.42 | -0.86 | reducing pepper fog by a factor of almost ten times |
| N=C(N)SCCSc1ccccc1 [VI] | 0.60 microns/sec | – | -0.01 | -0.19 | -0.48 | – |
| CCCCSCCSC(=N)N [V] | 0.57 microns/sec | – | -0.01 | -0.38 | -0.33 | – |
